According to patent publication US20200246365A1, “COMPOUNDS, PHARMACEUTICAL COMPOSITIONS AND USE THEREOF AS INHIBITORS OF RAN GTPASE” (THE ROYAL INSTITUTION FOR THE ADVANCEMENT OF LEARNING / …, priority 2017, published 2020):

What was measured:
Ran-GTP [1] = target: T1, Ran-GTP (Homo sapiens, UniProt P62826); test: Ran-GTP immunofluorescence in TOV112D cells; type: cell-based; details: TOV112D cells vs DMSO-treated
Protocol: M36 and R28-treated and control TOV112D cells grown on coverslips were washed with 1×PBS, fixed in 4% paraformaldehyde and permeabilized with 0.25% Triton X-100 (Sigma-Aldrich Inc.). After blocking (4% BSA and 4% FBS in PBS), coverslips were incubated with the monoclonal anti-RanGTP antibody (26915, NewEastBioscences) diluted 1:100 in blocking buffer for 2 hours at room temperature. Subsequently, samples were incubated with Cy-5 secondary antibody (1:500, Life Technologies Inc.) for 1 hour and coverslips were mounted onto slides using Prolong® Gold anti-fade reagent with DAPI (Life Technologies Inc.). Samples were visualized under a Zeiss microscope (Zeiss observer Z1) with a 20× objective.

[2] = Pharmacokinetics in CD1 mice; type: in vivo
Protocol: For the pharmacokinetic studies, 6-week-old female CD1 mice (Charles River laboratories, Senneville, QC, Canada) received a single intravenous or intraperitoneal injection of M36 or QR20 (50 mg/kg), dissolved in DMSO 10%, Kolliphor® EL 10%, PEG-400 20% and PBS 60% (QR20 was also dissolved in DMSO 10%, PBS 90%). For each time point (15 minutes, 30 minutes, […], 1 hour, 2 hours and 6 hours), 3 mice were sacrificed and blood was collected by cardiac puncture. Thereafter, the plasma level of each compound was measured by mass spectrometry.

[3] = target: T2, recombinant human Ran protein (Homo sapiens, UniProt P62826); test: Surface Plasmon Resonance (SPR) binding to immobilized Ran; details: different compound concentrations, reached saturation
T2 construct: Recombinant Ran protein was purchased from Sigma-Aldrich Inc. (R3152)
Protocol: SPR experiments were carried out using the Biacore 3000 system. Recombinant Ran protein was purchased from Sigma-Aldrich Inc. (R3152). The running buffer contained PBS, pH7.4, 1 mM GDP, 2 mM MgCl2 and 0.2% DMSO. The regeneration buffer contained 10 mM glycine (pH 2.5). Ran-GDP protein was immobilized onto a CM5 chip; samples of compounds in running buffer were injected at 30 μL/min for 10 minutes contact time followed by 5 minutes regeneration. Kd was calculated using the GraphPad Prism 5 software.

[4] = test system: TOV112D cells overexpressing DA Ran; test: Cell survival of TOV112D cells transfected with Ran WT or dominant active mutant; type: cell-based, human
Cdc42 = Cdc42 (Homo sapiens, UniProt P60953); test: Cdc42 activation ELISA in TOV112D cells; type: cell-based; details: vs DMSO
Chain of Cdc42 (P60953 whole entry): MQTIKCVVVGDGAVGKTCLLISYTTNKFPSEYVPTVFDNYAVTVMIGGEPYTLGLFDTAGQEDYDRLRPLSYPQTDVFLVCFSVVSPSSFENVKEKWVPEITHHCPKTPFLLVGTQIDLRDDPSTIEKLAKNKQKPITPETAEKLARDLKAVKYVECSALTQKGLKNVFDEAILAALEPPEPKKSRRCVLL

γH2AX foci = γH2AX foci immunostaining in TOV112D cells; type: cell-based, human
[5] = test system: other aneuploid EOC cells; test: IncuCyte cell proliferation assay, other aneuploid EOC cell lines; type: cell-based, human; details: 40 μM
Protocol: (§1) The human EOC cell lines used (TOV81D, TOV112D, OV90, TOV21G, OV866(2), TOV1369(R), OV1369(R2), TOV1946, OV1946, TOV2295(R), OV4485) were derived in our laboratory from patients' tumors (TOV) or ascites (OV). All EOC cell lines were maintained in a low oxygen condition of 7% O2 and 5% CO2 and grown in OSE medium (Wisent, Montreal, QC) supplemented with 10% FBS (Wisent), 0.5 μg/mL amphotericin B (Wisent) and 50 μg/mL gentamicin (Life Technologies Inc., Burlington, ON). The human retinal epithelial cell line ARPE-19 was purchased from American Type Culture Collection (ATCC, Manassas, Va.) and maintained in DMEM-F12 (Wisent) supplemented with 10% FBS (Wisent), 0.5 μg/mL amphotericin B (Wisent) and 50 μg/mL gentamicin (Life Technologies Inc.).
Cells (2,000 cells/well) were plated in a 96-well plate. The next day, compounds were added at the indicated concentrations. Following treatment, cell confluence was imaged by phase contrast using the IncuCyte live cell monitoring system (Essen BioScience, Ann Arbor, Mich.). Frames were captured at 2-hour intervals using a 10× objective. For Ran knock down experiments, cells were seeded in a 96-well plate (4,000 cells/well) directly after transfection. Cell confluence monitoring started the next day as described above.
(§2) Small molecules inhibitors of Ran were dissolved in 100% dimethyl sulfoxide (DMSO) and then further diluted in complete culture media for in vitro experiments. Drugs were added 24 hours after seeding.

ARPE-19 cells = test: Clonogenic survival assay, ARPE-19; type: cell-based, human
Protocol: as §1
(§3) Clonogenic assays were performed as previously described. Colonies were counted under a stereo microscope and reported as percent of control. IC50 values were determined using Graph Pad Prism 5 software (GraphPad Software Inc., San Diego, Calif.). Each experiment was performed in duplicate and repeated three times. Sensitivity of the cell lines to small molecules inhibitors of Ran was assessed using a concentration range of 0-50 μM.
as §2

53BP1 = 53BP1 immunofluorescence after gamma-irradiation in TOV112D cells; type: cell-based, human
Ran-GTP [6] = target: T1, Ran-GTP; test: Ran activation (Ran-GTP pull-down) assay in TOV112D cells; type: cell-based; details: 1 hour treatment, vs DMSO
Protocol: Cells were seeded onto 6-well tissue culture plates in such a way that cell confluence reaches approximately 70% the day of experiment. The day of experiment cells were treated for 1 hour with the indicated compounds prior to protein extraction and quantification. Assays were performed using the Ran activation assay kit (Cell Biolabs). Briefly, 400 μg of lysates were incubated for one hour at 4° C. with agarose beads conjugated to RANBP1, which specifically binds Ran-GTP. Beads were pelleted, washed, and re-suspended in SDS-PAGE buffer, followed by immunoblotting with an anti-Ran antibody.

cleaved PARP = test: Apoptosis by PARP cleavage (Western blot); type: cell-based, human; details: 96 hours after treatment
Protocol: Cells were lysed with RIPA buffer containing protease inhibitors. Whole cell lysates were run through a Bradford assay (Thermo Fisher Scientific) for protein quantification. Around 25-50 μg of proteins were separated onto 12.5% SDS-PAGE and transferred onto nitrocellulose membranes. The resultant blots were probed with Ran (1:10000, sc-271376 Santa Cruz Biotechnology, Dallas, Tex.), cleaved PARP (1:1000, #9541, Cell Signaling Technology Inc., Danvers, Mass.), GAPDH (1:2500, #2118, Cell Signaling Technology Inc.) or beta-actin (1:50000, ab6276, Abcam Inc., Toronto, ON, Canada) primary antibodies overnight at 4° C. then with peroxidase-conjugated secondary antibodies for 2 hours at room temperature. Proteins were detected using enhanced chemiluminescence (Thermo Fisher Scientific).

[7] = Tolerance test in NRG mice; type: in vivo; details: daily i.p. 75 mg/kg for 15 days
Protocol: For the tolerance test, M36 and QR20 compounds were dissolved in DMSO 10%, Kolliphor® EL 10%, PEG-400 20% and PBS 60% and injected intraperitoneally into 6-week-old female Nod Rag Gamma (NRG) mice (The Jackson laboratory, Bar Harbor, Me.) daily at 75 mg/kg. During this study, mice (n=3) were monitored for survival and weight loss/gain.

Rac1-GTP = Rac1-GTP (Homo sapiens, UniProt P63000); test: Rac1-GTP pull-down assay; type: cell-based; details: 50 μM M36 (FIG. 7F)
RhoA = RhoA (Homo sapiens, UniProt P61586); test: RhoA activation ELISA in TOV112D cells; type: cell-based; details: vs DMSO
Chain of RhoA (P61586 whole entry): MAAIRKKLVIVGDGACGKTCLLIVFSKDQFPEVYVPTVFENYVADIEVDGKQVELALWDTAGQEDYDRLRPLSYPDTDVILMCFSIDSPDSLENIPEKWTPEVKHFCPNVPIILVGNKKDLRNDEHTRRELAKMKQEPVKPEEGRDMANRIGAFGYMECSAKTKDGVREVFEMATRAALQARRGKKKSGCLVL

[8] = test system: prostate cancer cell lines (LNCaP, 22RV1, PC3, DU145); test: Cell proliferation, prostate cancer cell lines; type: cell-based
RAD51/Geminin foci (HR) = test: RAD51/Geminin foci after gamma-irradiation in TOV112D cells; type: cell-based, human
TOV112D cells = test: Clonogenic survival assay, TOV112D; type: cell-based, human
Protocol: as §1, §3, §2

NC(=S)[C@@H]1O[C@H](COCc2ccc(F)cc2)[C@@H](OCc2ccc(F)cc2)[C@H]1OCc1ccc(F)cc1 [M36]
Ran-GTP levels by immunofluorescence (Ran-GTP [1]): no detectable levels of Ran-GTP
pharmacokinetics profile based on AUC values ([2]; 50 mg/kg): good pharmacokinetics profiles
absorption after intraperitoneal vs intravenous injection (plasma levels) ([2]; 50 mg/kg single injection): less absorbed than compound QR20
persistence in the circulation ([2]; 50 mg/kg single injection): persists longer in the circulation
binding to the immobilized Ran protein [3]: concentration-dependent binding
inhibition of cell proliferation with DA Ran overexpression [4]: attenuated when DA Ran was overexpressed
activation of Cdc42 (Cdc42-GTP levels) (Cdc42): does not inhibit the activation
DNA damage (γH2AX foci) (γH2AX foci; 48 hours or 72 hours treatment): increases DNA damage
DNA double-strand breaks repair (γH2AX foci clearance) (γH2AX foci; after gamma-irradiation): delays DNA double-strand breaks repair
cell proliferation of other aneuploid EOC cells [5]: inhibited cell proliferation
effect on normal ARPE-19 cell line in detailed clonogenic assay (ARPE-19 cells; different concentrations): almost no effect
colony formation of ARPE-19 cells (ARPE-19 cells; single dose 10 μM): without affecting the ARPE-19 cells
NHEJ pathway (53BP1 foci) (53BP1; after gamma-irradiation): inhibiting the HR and NHEJ pathways
nuclear localization of 53BP1 (53BP1; cytoplasmic staining): interferes with the nuclear localization of 53BP1
active Ran-GTP levels (pull-down) (Ran-GTP [6]): concentration-dependent decrease in Ran-GTP levels
apoptosis (cleaved PARP on Western blot) (cleaved PARP): induced cell apoptosis
tolerance [7]: well tolerated
weight loss [7]: no weight loss
Rac1-GTP levels (pull-down) (Rac1-GTP): no decreased levels of Rac1-GTP
activation of RhoA (RhoA-GTP levels) (RhoA): does not inhibit the activation
effect on prostate cancer cell lines [8]: also effective in prostate cancer cell lines
HR pathway (RAD51/Geminin foci) (RAD51/Geminin foci (HR)): inhibiting the HR and NHEJ pathways
IC50 (TOV112D cells; Homo sapiens, TOV112D, read-out: IC50 value for the TOV112D cell line by clonogenic assay): 10 ± 0.36 µM
colony formation of TOV112D cells (TOV112D cells; single dose 10 μM): inhibited colony formation of TOV112D cells
